# System: naturally-occurring InvTCC
# Test: Study of folate-vinblastine conjugate in dogs with naturally-occurring InvTCC (tumor response)
# Type: in vivo
# Settings: IV once weekly, dose escalation from 0.2 mg/kg
# Experimental: A study was performed in dogs with naturally-occurring InvTCC to investigate antitumor activity and toxicity of folate targeted vinblastine treatment. The study of folate targeted vinblastine was performed in privately owned dogs with naturally-occurring InvTCC at the Purdue University Veterinary Teaching Hospital (PUVTH), Inclusion criteria for dogs in the study included: measurable, histologically-confirmed InvTCC; positive folate uptake detected by scintigraphy or FR expression observed in the tumor via IHC; expected survival of at least 6 weeks; and written dog owner consent. The study was open to dogs that had failed other therapies or who were not eligible for standard therapy.
# The folate-vinblastine conjugate EC0905 was used. Briefly, EC0905 is a water-soluble folate conjugate of desacetylvinblastine monohydrazide (DA VLBH), which is constructed with the DA VLBH drug moiety attached to a hydrophilic folate-peptide compound via an endosome-cleavable disulfide bond (FIG. 1). A dose escalation study was performed. EC0905 was administered IV once weekly (starting dose 0.2 mg/kg), Dose escalation was performed within and between dogs with at least 3 dogs in each dose group, and at least 6 dogs treated at the maximum tolerated dose (MTD) (increased by 0.02 mg/kg in each dose group). Toxicity was assessed by CBCs, serum chemistry profiles, urinalyses, physical exams, and owner observations. Toxicity was classified by Veterinary Cooperative Oncology Group (VCOG) criteria.
# The EC0905 dose was reduced by 10% if grade 2 toxicity was noted, and by 20% if grade 3 or higher toxicity occurred. Treatment was delayed by one week if the neutrophil count was<3000/mm^3 or platelet count <100,000/mm^3 the day treatment was due. The treatment protocol was scheduled to continue until 8 weeks beyond complete remission, or until cancer progression, or until unacceptable toxicity was noted.
# Physical exam, medical history, and CBC were obtained weekly. Monthly evaluation included CBC, serum biochemical profile, urinalysis, urinary tract ultrasound, and mapping of the bladder masses by ultrasound. Urinary tumors were measured by a single ultrasound operator, and estimated tumor volume was recorded. Prior to treatment and at 8-week intervals, complete tumor staging (thoracic radiography, full abdominal ultrasonography) was performed, and tumor stage determined by the World Health Organization criteria for canine urinary bladder tumors. Tumor response was defined as: complete remission (no cancer detected), partial remission (PR, ≧50% decrease in tumor volume and no new tumor lesions), stable disease (SD, <50% change in tumor volume and no new tumor lesions), and progressive disease (PD, ≧50% increase in tumor volume or the development of new tumor lesions).
substance,measurement,value
Pte-γGlu-(Glu(1-amino-1-deoxy-D-glucitol)-Glu)3-Glu(1-amino-1-deoxy-D-glucitol)-Cys(S-ethyl-3-(4-desacetylvinblastinyl)hydrazinecarboxylate) [EC0905],"Partial remission (PR), percent of cases",50%
same,"Partial remission (PR, ≧50% decrease in tumor volume and no new tumor lesions), number of dogs",5 dogs
same,"Stable disease (SD), percent of cases",50%
same,"Stable disease (SD, <50% change in tumor volume and no new tumor lesions), number of dogs",5 dogs

# Source: patent publication US20130267522A1, “METHODS FOR TREATING CANCER” (priority 2012, published 2013)
